The experiment deals with OTA aptabeacon (DNA, aptamer) CGCGCTGGATCGGGTGTGGGTGGCGTAAAGGGAGCATCGGACACAGCGCG
The experiment in a line: molecular beacon fluorescence, real-time PCR cycler. Conditions: 120 mM NaCl, 5 mM KCl, 20 mM CaCl2, 10 mM Tris pH 8.5, 30 °C.

With `C[C@@H]1Cc2ccc(C(=O)N[C@@H](Cc3ccccc3)C(=O)O)c(O)c2C(=O)O1`, the binding result (2 µM toxin, peak area 67–88% lower than OTA) is on record as “weak”. Regarding `C[C@@H]1Cc2c(Cl)cc(C(=O)N[C@@H](Cc3ccccc3)C(=O)O)c(O)c2C(=O)O1`, under “1 µM aptabeacon, calculated from Kd = [A][L]/[AL]”, the Kd was 800 nM.

The record behind these values is publication PMC4379526 (2015).
